In patent US20140135270A1, “MACROCYCLIC COMPOUNDS FOR INHIBITION OF INHIBITORS OF APOPTOSIS” (Ensemble Therapeutics Corp., priority 2012, published 2014):

What was measured:
His-BIR3 (241-356, XIAP) = target: T1, His-BIR3 (241-356, XIAP) (Homo sapiens, UniProt P98170); test: XIAP-BIR3/SMAC Homogeneous Time Resolved Fluorescence (HTRF) Assay; format: binding; conditions: fluorescein labeled SMAC peptide
T1 construct: additions of His-BIR3 (241-356, XIAP), fluorescein labeled SMAC peptide

[1] = target: T2, His-BIR2-3 (125-356, C202A/C213G, XIAP) (Homo sapiens, UniProt P98170, C202A/C213G); test: XIAP-BIR2-3 Dimeric SMAC Peptide Homogeneous Time Resolved Fluorescence (HTRF) Assay; format: binding; conditions: fluorescein labeled dimeric SMAC peptide
T2 construct: additions of His-BIR2-3 (125-356, C202A/C213G, XIAP), fluorescein labeled dimeric SMAC peptide
T2 sequence (P98170 125-356 C202A/C213G): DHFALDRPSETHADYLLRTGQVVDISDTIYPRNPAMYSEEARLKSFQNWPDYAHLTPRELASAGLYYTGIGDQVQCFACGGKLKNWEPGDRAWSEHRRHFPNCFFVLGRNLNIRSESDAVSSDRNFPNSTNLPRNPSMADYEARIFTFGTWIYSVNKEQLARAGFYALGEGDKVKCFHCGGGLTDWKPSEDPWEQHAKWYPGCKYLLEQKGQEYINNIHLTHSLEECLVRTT

T1 sequence (P98170 241-356): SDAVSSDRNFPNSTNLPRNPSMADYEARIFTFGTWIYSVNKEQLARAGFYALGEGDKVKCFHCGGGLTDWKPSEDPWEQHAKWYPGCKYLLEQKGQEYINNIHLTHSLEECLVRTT

SMILES	IC50 (His-BIR3 (241-356, XIAP))	IC50 [1]
CN[C@@H](C)C(=O)NC(C(=O)N1C[C@H]2CCCCOc3ccc(cc3)C[C@@H](c3n[nH]c(=O)o3)NC(=O)C(Cc3ccc4ccccc4c3)NC(=O)[C@@H]3C[C@@H](CN3C(=O)[C@@H](NC(=O)[C@H](C)NC)C(C)(C)C)n3cc(nn3)COc3ccc(cc3)C[C@@H](C(=O)O)NC(=O)[C@H](Cc3ccc4ccccc4c3)NC(=O)[C@@H]1C2)C(C)(C)C (stereo partly drawn) [Example 92]	2.9 nM	0.9 nM
CN[C@@H](C)C(=O)N[C@H](C(=O)N1C[C@H]2C/C=C/COc3ccc(cc3)C[C@@H](C(=O)NS(C)(=O)=O)NC(=O)[C@H](Cc3ccc4ccccc4c3)NC(=O)[C@@H]3C[C@@H](CN3C(=O)[C@@H](NC(=O)[C@H](C)NC)C(C)(C)C)n3cc(nn3)COc3ccc(cc3)C[C@@H](C(=O)O)NC(=O)[C@H](Cc3ccc4ccccc4c3)NC(=O)[C@@H]1C2)C(C)(C)C [Example 26]	3.9 nM	0.9 nM
CN[C@@H](C)C(=O)N[C@H](C(=O)N1C[C@@H]2C[C@H]1C(=O)N[C@@H](Cc1ccc3ccccc3c1)C(=O)N[C@H](C(=O)O)Cc1ccc(cc1)OCCCCO[C@H]1C[C@@H](C(=O)N[C@@H](Cc3ccc4ccccc4c3)C(=O)N[C@H](C(=O)NS(=O)(=O)c3ccccn3)Cc3ccc(cc3)OCc3cn2nn3)N(C(=O)[C@@H](NC(=O)[C@H](C)NC)C(C)(C)C)C1)C(C)(C)C [Example 125]	3.7 nM	2.7 nM
CN[C@@H](C)C(=O)N[C@H](C(=O)N1C[C@@H]2C[C@H]1C(=O)N[C@@H](Cc1ccc3ccccc3c1)C(=O)N[C@H](C(=O)O)Cc1ccc(cc1)C(=O)N[C@H]1C[C@@H](C(=O)N[C@@H](Cc3ccc4ccccc4c3)C(=O)N[C@H](C(=O)O)Cc3ccc(cc3)OC/C=C/CO2)N(C(=O)[C@@H](NC(=O)[C@H](C)NC)C(C)(C)C)C1)C(C)O (stereo partly drawn) [Example 65]	14.3 nM	1.9 nM
CN[C@@H](C)C(=O)N[C@H](C(=O)N1C[C@@H]2C[C@H]1C(=O)N[C@@H](Cc1ccc3ccccc3c1)C(=O)N[C@H](C(=O)O)Cc1ccc(cc1)OCc1cn(nn1)[C@H]1C[C@@H](C(=O)N[C@@H](Cc3ccc4ccccc4c3)C(=O)N[C@H](C(=O)NS(C)(=O)=O)Cc3ccc(cc3)OCCCCO2)N(C(=O)[C@@H](NC(=O)[C@H](C)NC)C(C)(C)C)C1)C(C)(C)C [Example 124]	19.4 nM	13.6 nM
CN[C@@H](C)C(=O)N[C@H](C(=O)N[C@H]1C/C=C/CC[C@@H](C(=O)O)NC(=O)[C@H](Cc2ccc3ccccc3c2)NC(=O)[C@@H]2CN(CCN2C(=O)[C@@H](NC(=O)[C@H](C)NC)C(C)(C)C)C(=O)CNC(=O)CC[C@@H](C(=O)O)NC(=O)[C@H](Cc2ccc3ccccc3c2)NC1=O)C(C)(C)C [Example 77]	206 nM	12.1 nM
CN[C@@H](C)C(=O)N[C@H](C(=O)N1C[C@@H]2C[C@H]1C(=O)N[C@@H](Cc1ccc3ccccc3c1)C(=O)N[C@H](C(=O)O)Cc1ccc(cc1)OC/C=C/CO[C@H]1C[C@@H](C(=O)N[C@@H](c3ccccc3)C(=O)N[C@H](C(=O)O)Cc3ccc(cc3)C(=O)N2)N(C(=O)[C@@H](NC(=O)[C@H](C)NC)C(C)(C)C)C1)C(C)(C)C [Example 51]	61 nM	4.8 nM
CN[C@@H](C)C(=O)N[C@H](C(=O)N1CC[C@@H]2OC/C=C/COc3ccc(cc3)C[C@@H](C(=O)O)NC(=O)[C@H](Cc3ccc4ccccc4c3)NC(=O)[C@@H]3[C@H](CCN3C(=O)[C@@H](NC(=O)[C@H](C)NC)C(C)(C)C)OCc3cn(nn3)[C@H](C(=O)NS(C)(=O)=O)CCCNC(=O)[C@H](Cc3ccc4ccccc4c3)NC(=O)[C@H]21)C(C)(C)C [Example 18]	5.8 nM	1.8 nM
CN[C@@H](C)C(=O)N[C@H](C(=O)N1CCC2[C@H]1C(=O)N[C@@H](Cc1ccc3ccccc3c1)C(=O)N[C@H](C(=O)O)Cc1ccc(cc1)OC/C=C/CO[C@H]1C[C@@H](C(=O)N[C@@H](Cc3ccc4ccccc4c3)C(=O)N[C@H](C(=O)O)Cc3ccc(cc3)OCc3cn2nn3)N(C(=O)[C@@H](NC(=O)[C@H](C)NC)C(C)(C)C)C1)C(C)(C)C (stereo partly drawn) [Example 13]	5.4 nM	12.4 nM
CN[C@@H](C)C(=O)N[C@@H](CC(=O)O)C(=O)N1C[C@@H]2C[C@H]1C(=O)N[C@@H](Cc1ccc3ccccc3c1)C(=O)N[C@H](C(=O)O)Cc1ccc(cc1)C(=O)N[C@H]1C[C@@H](C(=O)N[C@@H](Cc3ccc4ccccc4c3)C(=O)N[C@H](C(=O)O)Cc3ccc(cc3)OC/C=C/CO2)N(C(=O)[C@@H](NC(=O)[C@H](C)NC)C(C)(C)C)C1 [Example 64]	36.6 nM	5.9 nM
CC[C@H](NC(=O)[C@H](C)NC)C(=O)N1C[C@@H]2C[C@H]1C(=O)N[C@@H](Cc1ccc(-c3ccccc3)cc1)C(=O)N[C@H](C(=O)O)Cc1ccc(cc1)C(=O)N[C@H]1C[C@@H](C(=O)N[C@@H](Cc3ccc4ccccc4c3)C(=O)N[C@H](C(=O)O)Cc3ccc(cc3)OC/C=C/CO2)N(C(=O)[C@@H](NC(=O)[C@H](C)NC)C(C)(C)C)C1 [Example 49]	16.1 nM	4.8 nM
CN[C@@H](C)C(=O)N[C@@H](CC1CCCCC1)C(=O)N1C[C@@H]2C[C@H]1C(=O)N[C@@H](Cc1ccc3ccccc3c1)C(=O)N[C@H](C(=O)O)Cc1ccc(cc1)C(=O)N[C@H]1C[C@@H](C(=O)N[C@@H](Cc3ccc4ccccc4c3)C(=O)N[C@H](C(=O)O)Cc3ccc(cc3)OC/C=C/CO2)N(C(=O)[C@@H](NC(=O)[C@H](C)NC)C(C)(C)C)C1 [Example 69]	16.4 nM	3.2 nM
CC[C@H](NC(=O)[C@H](C)NC)C(=O)N1C[C@@H]2C[C@H]1C(=O)N1Cc3ccccc3C[C@H]1C(=O)N[C@H](C(=O)O)Cc1ccc(cc1)C(=O)N[C@H]1C[C@@H](C(=O)N[C@@H](Cc3ccc4ccccc4c3)C(=O)N[C@H](C(=O)O)Cc3ccc(cc3)OC/C=C/CO2)N(C(=O)[C@@H](NC(=O)[C@H](C)NC)C(C)(C)C)C1 [Example 50]	80 nM	56.7 nM

Second part, the compound after the results:

IC50 (His-BIR3 (241-356, XIAP))	IC50 [1]	SMILES
9.4 nM	11.3 nM	CN[C@@H](C)C(=O)N[C@H](C(=O)N1C[C@@H]2C[C@H]1C(=O)N[C@@H](Cc1ccc3ccccc3c1)C(=O)N[C@H](C(=O)O)Cc1ccc(cc1)OC/C=C/CO[C@H]1C[C@@H](C(=O)N[C@@H](Cc3cccc(-c4ccc(CO)cc4)c3)C(=O)N[C@H](C(=O)NS(=O)(=O)C3CC3)Cc3ccc(cc3)OCc3cn2nn3)N(C(=O)[C@@H](NC(=O)[C@H](C)NC)C(C)(C)C)C1)C(C)(C)C [Example 117]
10 nM	35 nM	CN[C@@H](C)C(=O)N[C@H](C(=O)N1C[C@@H]2C[C@H]1C(=O)N[C@@H](Cc1ccc3ccccc3c1)C(=O)N[C@H](C(=O)O)Cc1ccc(cc1)OC/C=C/C[C@H]1C[C@@H](C(=O)N[C@@H](Cc3ccc4ccccc4c3)C(=O)N[C@H](C(=O)NS(=O)(=O)C3CC3)Cc3ccc(cc3)OCc3cnnn32)N(C(=O)[C@@H](NC(=O)[C@H](C)NC)C(C)(C)C)C1)C(C)(C)C [Example 102]
49.7 nM	13.2 nM	CN[C@@H](C)C(=O)N[C@H](C(=O)N1C[C@@H]2C[C@H]1C(=O)N[C@@H](Cc1ccc3ccccc3c1)C(=O)N[C@H](C(=O)O)Cc1ccc(cc1)OC/C=C/CO[C@H]1C[C@@H](C(=O)N3Cc4ccccc4C[C@H]3C(=O)N[C@H](C(=O)NS(=O)(=O)C3CC3)Cc3ccc(cc3)OCc3cn2nn3)N(C(=O)[C@@H](NC(=O)[C@H](C)NC)C(C)(C)C)C1)C(C)(C)C [Example 105]
3.1 nM	1.8 nM	CN[C@@H](C)C(=O)N[C@H](C(=O)N1C[C@@H]2C[C@H]1C(=O)NC(Cc1ccc3ccccc3c1)C(=O)N[C@H](c1n[nH]c(=O)n1Cc1ccc(OC)cc1)Cc1ccc(cc1)OC/C=C/C[C@H]1C[C@@H](C(=O)N[C@@H](Cc3ccc4ccccc4c3)C(=O)N[C@H](C(=O)O)Cc3ccc(cc3)OCc3cn2nn3)N(C(=O)[C@@H](NC(=O)[C@H](C)NC)C(C)(C)C)C1)C(C)(C)C (stereo partly drawn) [Example 95]
16.8 nM	2.5 nM	CN[C@@H](C)C(=O)N[C@H](C(=O)N1C[C@@H]2C[C@H]1C(=O)N[C@@H](Cc1ccc3ccccc3c1)C(=O)N[C@H](C(=O)O)Cc1ccc(cc1)C(=O)N[C@H]1C[C@@H](C(=O)N[C@@H](Cc3ccc4ccccc4c3)C(=O)N[C@H](C(=O)O)Cc3ccc(cc3)C(=O)N2)N(C(=O)[C@@H](NC(=O)[C@H](C)NC)C(C)(C)C)C1)C(C)(C)C [Example 85]
373 nM	6.8 nM	CN[C@@H](C)C(=O)N[C@H](C(=O)N[C@H]1C/C=C/CC[C@@H](C(=O)O)NC(=O)[C@H](Cc2ccc3ccccc3c2)NC(=O)[C@@H]2CN(CCNC(=O)CC[C@@H](C(=O)O)NC(=O)[C@H](Cc3ccc4ccccc4c3)NC1=O)CCN2C(=O)[C@@H](NC(=O)[C@H](C)NC)C(C)(C)C)C(C)(C)C [Example 80]
1.7 nM	1.1 nM	CN[C@@H](C)C(=O)N[C@H](C(=O)N1C[C@@H]2C[C@H]1C(=O)N[C@@H](Cc1ccc3ccccc3c1)C(=O)N[C@H](C(=O)O)Cc1ccc(cc1)OC/C=C/C[C@H]1C[C@@H](C(=O)N[C@@H](Cc3ccc4ccccc4c3)C(=O)N[C@H](C(=O)NS(=O)(=O)C3CC3)Cc3ccc(cc3)OCc3cn2nn3)N(C(=O)[C@@H](NC(=O)[C@H](C)NC)C(C)(C)C)C1)C(C)(C)C [Example 86]
7.1 nM	1 nM	CN[C@@H](C)C(=O)N[C@H](C(=O)N1C[C@@H]2C[C@H]1C(=O)NC(Cc1ccc3ccccc3c1)C(=O)N[C@H](C(=O)O)CCCCOC/C=C/C[C@H]1C[C@@H](C(=O)N[C@@H](Cc3ccc4ccccc4c3)C(=O)N[C@H](C(=O)O)Cc3ccc(cc3)OCc3cn2nn3)N(C(=O)[C@@H](NC(=O)[C@H](C)NC)C(C)(C)C)C1)C(C)(C)C (stereo partly drawn) [Example 96]
